Data taken from PMC4441267.

Assays:
[1] = CuAAC macrocyclisation of azide/terminal alkyne linear peptidomimetics to 1,4-triazole (CuI 2 eq, DIPEA 3 eq, Ar-degassed), then Boc removal (TMSCl/MeOH GP4; HCl/dioxane GP5 for A13w, J13w); conditions: THF (reflux), 1.2 mM, 66.0 °C, 18.0 h, 2 steps
[2] = RuAAC macrocyclisation of azide/terminal alkyne linear peptidomimetics to 1,5-triazole ([Cp*RuCl]4 0.1 eq, Ar-degassed), then Boc removal (TMSCl/MeOH GP4 or HCl/dioxane GP5); conditions: toluene (reflux), 1.25 mM, 111.0 °C, 18.0 h, 2 steps

## COC(=O)[C@@H]1CCCn2cc(nn2)CCCC(=O)Nc2ccc(cc2)C[C@H](NC(=O)OC(C)(C)C)C(=O)N[C@@H](C)C(=O)N1 [Boc-Phe(4-NH-5-hexynoyl)-Ala-Orn(N3)-OMe]
[1]; from C#CCCCC(=O)Nc1ccc(C[C@H](NC(=O)OC(C)(C)C)C(=O)N[C@@H](C)C(=O)N[C@@H](CCCN=[N+]=[N-])C(=O)OC)cc1, 23-membered ring
  ring closure, yield over several steps: 21%

## COC(=O)[C@@H]1CCCn2cc(nn2)CCC(=O)NCCC[C@H](NC(=O)OC(C)(C)C)C(=O)N1 [Boc-Orn(4-pentynoyl)-Orn(N3)-OMe]
[1]; from C#CCCC(=O)NCCC[C@H](NC(=O)OC(C)(C)C)C(=O)N[C@@H](CCCN=[N+]=[N-])C(=O)OC, 17-membered ring
  ring closure, yield over several steps: 85%

## COC(=O)[C@@H]1CCCCNC(=O)[C@H](Cc2ccccc2)n2cc(nn2)CCCC(=O)NCC[C@H](NC(=O)OC(C)(C)C)C(=O)N1 [Boc-Dab(5-hexynoyl)-Lys(N3-Phe)-OMe]
[1]; from C#CCCCC(=O)NCC[C@H](NC(=O)OC(C)(C)C)C(=O)N[C@@H](CCCCNC(=O)[C@H](Cc1ccccc1)N=[N+]=[N-])C(=O)OC, 21-membered ring
  ring closure, yield over several steps: 88%

## COC(=O)[C@@H]1CCCn2cc(nn2)CNC(=O)NC[C@H](NC(=O)OC(C)(C)C)C(=O)N[C@H](C(=O)OC)CCC(=O)N1 [Boc-Dap(CONH-propargyl)-Glu(gamma-Orn(N3)-OMe)-OMe]
[1]; from C#CCNC(=O)NC[C@H](NC(=O)OC(C)(C)C)C(=O)N[C@@H](CCC(=O)N[C@@H](CCCN=[N+]=[N-])C(=O)OC)C(=O)OC, 20-membered ring
  ring closure, yield over several steps: 78%

## COC(=O)[C@@H]1CNC(=O)[C@H](Cc2ccccc2)n2cc(nn2)CCC(=O)NCC[C@H](NC(=O)OC(C)(C)C)C(=O)N1 [Boc-Dab(4-pentynoyl)-Dap(N3-Phe)-OMe]
[1]; from C#CCCC(=O)NCC[C@H](NC(=O)OC(C)(C)C)C(=O)N[C@@H](CNC(=O)[C@H](Cc1ccccc1)N=[N+]=[N-])C(=O)OC, 17-membered ring
  ring closure, yield over several steps: 81%

## COC(=O)[C@@H]1CCCCn2cc(nn2)CCCC(=O)NCC[C@H](NC(=O)OC(C)(C)C)C(=O)N1 [Boc-Dab(5-hexynoyl)-Lys(N3)-OMe]
[1]; from C#CCCCC(=O)NCC[C@H](NC(=O)OC(C)(C)C)C(=O)N[C@@H](CCCCN=[N+]=[N-])C(=O)OC, 18-membered ring
  ring closure, yield over several steps: 99%

## COC(=O)[C@@H]1CCCn2cc(nn2)CNC(=O)NCC[C@H](NC(=O)OC(C)(C)C)C(=O)N1 [Boc-Dab(CONH-propargyl)-Orn(N3)-OMe]
[1]; from C#CCNC(=O)NCC[C@H](NC(=O)OC(C)(C)C)C(=O)N[C@@H](CCCN=[N+]=[N-])C(=O)OC, 16-membered ring
  ring closure, yield over several steps: 29%

## COC(=O)[C@@H]1CCCCn2cc(nn2)CCC(=O)NCC[C@H](NC(=O)OC(C)(C)C)C(=O)N1 [Boc-Dab(4-pentynoyl)-Lys(N3)-OMe]
[1]; from C#CCCC(=O)NCC[C@H](NC(=O)OC(C)(C)C)C(=O)N[C@@H](CCCCN=[N+]=[N-])C(=O)OC, 17-membered ring
  ring closure, yield over several steps: 62%

## COC(=O)[C@@H]1CCCCNC(=O)[C@H](Cc2ccccc2)n2cc(nn2)CCCC(=O)NCCCC[C@H](NC(=O)OC(C)(C)C)C(=O)N1 [Boc-Lys(5-hexynoyl)-Lys(N3-Phe)-OMe]
[1]; from C#CCCCC(=O)NCCCC[C@H](NC(=O)OC(C)(C)C)C(=O)N[C@@H](CCCCNC(=O)[C@H](Cc1ccccc1)N=[N+]=[N-])C(=O)OC, 23-membered ring
  ring closure, yield over several steps: 54%

## COC(=O)[C@@H]1CNC(=O)[C@H](Cc2ccccc2)n2cc(nn2)CCCC(=O)NCC[C@H](NC(=O)OC(C)(C)C)C(=O)N1 [Boc-Dab(5-hexynoyl)-Dap(N3-Phe)-OMe]
[1]; from C#CCCCC(=O)NCC[C@H](NC(=O)OC(C)(C)C)C(=O)N[C@@H](CNC(=O)[C@H](Cc1ccccc1)N=[N+]=[N-])C(=O)OC, 18-membered ring
  ring closure, yield over several steps: 70%

## COC(=O)[C@@H]1CNC(=O)[C@H](Cc2ccccc2)n2cc(nn2)CCCC(=O)NCCC[C@H](NC(=O)OC(C)(C)C)C(=O)N1 [Boc-Orn(5-hexynoyl)-Dap(N3-Phe)-OMe]
[1]; from C#CCCCC(=O)NCCC[C@H](NC(=O)OC(C)(C)C)C(=O)N[C@@H](CNC(=O)[C@H](Cc1ccccc1)N=[N+]=[N-])C(=O)OC, 19-membered ring
  ring closure, yield over several steps: 99%

## COC(=O)[C@@H]1CNC(=O)[C@H](Cc2ccccc2)n2cc(nn2)CCC(=O)NCCCC[C@H](NC(=O)OC(C)(C)C)C(=O)N1 [Boc-Lys(4-pentynoyl)-Dap(N3-Phe)-OMe]
[1]; from C#CCCC(=O)NCCCC[C@H](NC(=O)OC(C)(C)C)C(=O)N[C@@H](CNC(=O)[C@H](Cc1ccccc1)N=[N+]=[N-])C(=O)OC, 19-membered ring
  ring closure, yield over several steps: 98%

## COC(=O)[C@@H]1CCCCn2cc(nn2)CCC(=O)NCCC[C@H](NC(=O)OC(C)(C)C)C(=O)N1 [Boc-Orn(4-pentynoyl)-Lys(N3)-OMe]
[1]; from C#CCCC(=O)NCCC[C@H](NC(=O)OC(C)(C)C)C(=O)N[C@@H](CCCCN=[N+]=[N-])C(=O)OC, 18-membered ring
  ring closure, yield over several steps: 93%

## COC(=O)[C@@H]1CCCn2cc(nn2)CCC(=O)NCCCC[C@H](NC(=O)OC(C)(C)C)C(=O)N1 [Boc-Lys(4-pentynoyl)-Orn(N3)-OMe]
[1]; from C#CCCC(=O)NCCCC[C@H](NC(=O)OC(C)(C)C)C(=O)N[C@@H](CCCN=[N+]=[N-])C(=O)OC, 18-membered ring
  ring closure, yield over several steps: 99%

## COC(=O)[C@@H]1CCCCNC(=O)[C@H](Cc2ccccc2)n2cc(nn2)CCC(=O)NCC[C@H](NC(=O)OC(C)(C)C)C(=O)N1 [Boc-Dab(4-pentynoyl)-Lys(N3-Phe)-OMe]
[1]; from C#CCCC(=O)NCC[C@H](NC(=O)OC(C)(C)C)C(=O)N[C@@H](CCCCNC(=O)[C@H](Cc1ccccc1)N=[N+]=[N-])C(=O)OC, 20-membered ring
  ring closure, yield over several steps: 91%

## COC(=O)[C@@H]1CNC(=O)[C@H](Cc2ccccc2)n2nncc2CCCC(=O)NCCCC[C@H](N)C(=O)N1 [Boc-Lys(5-hexynoyl)-Dap(N3-Phe)-OMe]
[2]; from C#CCCCC(=O)NCCCC[C@H](NC(=O)OC(C)(C)C)C(=O)N[C@@H](CNC(=O)[C@H](Cc1ccccc1)N=[N+]=[N-])C(=O)OC, 19-membered ring
  ring closure, yield over several steps: 99%

## COC(=O)[C@@H]1Cc2ccc(cc2)-n2nncc2CCCC(=O)NCCC[C@H](N)C(=O)N1 [Boc-Orn(5-hexynoyl)-Phe(4-N3)-OMe]
[2]; from C#CCCCC(=O)NCCC[C@H](NC(=O)OC(C)(C)C)C(=O)N[C@@H](Cc1ccc(N=[N+]=[N-])cc1)C(=O)OC, 19-membered ring
  ring closure, yield over several steps: 97%

## COC(=O)[C@@H]1CNC(=O)[C@H](Cc2ccccc2)n2nncc2CCCC(=O)NCCC[C@H](N)C(=O)N1 [Boc-Orn(5-hexynoyl)-Dap(N3-Phe)-OMe]
[2]; from C#CCCCC(=O)NCCC[C@H](NC(=O)OC(C)(C)C)C(=O)N[C@@H](CNC(=O)[C@H](Cc1ccccc1)N=[N+]=[N-])C(=O)OC, 18-membered ring
  ring closure, yield over several steps: 46%

## COC(=O)[C@@H]1CCCCNC(=O)[C@H](Cc2ccccc2)n2nncc2CNC(=O)NCC[C@H](N)C(=O)N1 [Boc-Dab(CONH-propargyl)-Lys(N3-Phe)-OMe]
[2]; from C#CCNC(=O)NCC[C@H](NC(=O)OC(C)(C)C)C(=O)N[C@@H](CCCCNC(=O)[C@H](Cc1ccccc1)N=[N+]=[N-])C(=O)OC, 19-membered ring
  ring closure, yield over several steps: 78%

## COC(=O)[C@@H]1CCCCn2nncc2CCCC(=O)NCC[C@H](N)C(=O)N1 [Boc-Dab(5-hexynoyl)-Lys(N3)-OMe]
[2]; from C#CCCCC(=O)NCC[C@H](NC(=O)OC(C)(C)C)C(=O)N[C@@H](CCCCN=[N+]=[N-])C(=O)OC, 17-membered ring
  ring closure, yield over several steps: 99%

## COC(=O)[C@@H]1CCCCNC(=O)[C@H](Cc2ccccc2)n2nncc2CCCC(=O)Nc2ccc(cc2)C[C@H](N)C(=O)N1 [Boc-Phe(4-NH-5-hexynoyl)-Lys(N3-Phe)-OMe]
[2]; from C#CCCCC(=O)Nc1ccc(C[C@H](NC(=O)OC(C)(C)C)C(=O)N[C@@H](CCCCNC(=O)[C@H](Cc2ccccc2)N=[N+]=[N-])C(=O)OC)cc1, 23-membered ring
  ring closure, yield over several steps: 50%

## COC(=O)[C@@H]1CCCCn2nncc2CCCC(=O)NCCCC[C@H](N)C(=O)N1 [Boc-Lys(5-hexynoyl)-Lys(N3)-OMe]
[2]; from C#CCCCC(=O)NCCCC[C@H](NC(=O)OC(C)(C)C)C(=O)N[C@@H](CCCCN=[N+]=[N-])C(=O)OC, 19-membered ring
  ring closure, yield over several steps: 65%

## COC(=O)[C@@H]1CCCn2nncc2CCC(=O)NCC[C@H](N)C(=O)N1 [Boc-Dab(4-pentynoyl)-Orn(N3)-OMe]
[2]; from C#CCCC(=O)NCC[C@H](NC(=O)OC(C)(C)C)C(=O)N[C@@H](CCCN=[N+]=[N-])C(=O)OC, 15-membered ring
  ring closure, yield over several steps: 82%

## COC(=O)[C@@H]1CCCCn2nncc2CCCC(=O)NCCC[C@H](N)C(=O)N1 [Boc-Orn(5-hexynoyl)-Lys(N3)-OMe]
[2]; from C#CCCCC(=O)NCCC[C@H](NC(=O)OC(C)(C)C)C(=O)N[C@@H](CCCCN=[N+]=[N-])C(=O)OC, 18-membered ring
  ring closure, yield over several steps: 99%

## COC(=O)[C@@H]1CCCCn2nncc2CCC(=O)NC[C@H](N)C(=O)N1 [Boc-Dap(4-pentynoyl)-Lys(N3)-OMe]
[2]; from C#CCCC(=O)NC[C@H](NC(=O)OC(C)(C)C)C(=O)N[C@@H](CCCCN=[N+]=[N-])C(=O)OC, 15-membered ring
  ring closure, yield over several steps: 88%
